Columns and labels:
[1] = tested on: E. coli M1262 expressing the cyanobacterial ahas gene; test: Growth on minimal media of E. coli M1262 expressing the cyanobacterial ahas gene; type: cell-based
Excerpt: To confirm that these plasmids carry functional AHAS sequences, plasmid DNA from each of the ten rescued colonies was transformed into the E. coli strain M1262. (leuB6, ilv1614, ilvH612, λ^−, relA1, spoT1, ilvB619, ilvG603, ilfG605(am), thi-1) (Genetics Stock Center, Yale University). This strain of E. coli is lacking in AHAS. […] The ahas gene can therefore be used for achieving herbicide tolerance in crops by transformation into the nuclear or plastidic genome.

[2] = tested on: AHAS enzyme of pACBC222 line G-981208-1.1; test: AHAS enzyme assay of transplastomic tobacco line; type: biochemical; details: line sprayed with 18 g/ha PURSUIT imazethapyr; assay in the presence of the herbicide
[3] = tested on: p116 line G-981208-1.1; test: PURSUIT imazethapyr spray test, p116 line; type: in vivo, tobacco
Description: (§1) Observations and photos (FIG. 8) of the PURSUIT® imazethapyr spray test were taken 5 weeks after the test was conducted. […] Leaves assumed a thin, spiny form.

[4] = tested on: Wild type (W-38) tobacco; test: PURSUIT imazethapyr spray test, wild type tobacco; type: in vivo; details: 18 g/ha, 5 weeks after the test
Description: as §1

[5] = tested on: p111 and p112 transplastomic tobacco lines; test: PURSUIT imazethapyr spray test, p111 and p112 lines; type: in vivo; details: 18 g/ha, 5 weeks after the test
Description: as §1

[6] = tested on: Synechocystis AHAS; test: In vitro AHAS assay; type: biochemical, Synechocystis PCC6803; details: 100 μM
Description: (§2) AHAS is the target site of both PURSUIT® imazethapyr and OUST® sulfometuron methyl herbicides. To determine if resistance to the herbicides is due to a natural resistance to inhibition of the acetohydroxyacid synthase enzymes from the cyanobacteria, or if it is due to alternative mechanisms (e.g. lack of entry into the cell), the in vitro activity of the AHAS enzyme in the presence of the herbicides was tested.
(§3) AHAS assays were performed with slight modification as described by Singh et. al (Singh B K, Stidham M A, Shaner D L, 1988, Assay for acetohydroxyacid synthase from plants. Anal Biochem 171: 173-179).
(§4) Synechocystis PCC6803 and Anabaena PCC7120 were cultured in 1.5 L of BG-11 media. Cells were collected by centrifuge and stored frozen at −80° C. Frozen cells were thawed and placed in a 30 mL Bead Beater cell disruptor chamber (BioSpec Corp Bartlesville, Okla.). Seven mL of acid washed sand was added. The chamber was filled with 2× ASHA assay buffer, consisting of 100 mM HEPES pH7.0, 200 mM pyruvate, 20 mM MgCl2, 2 mM TPP (Thiamine pyrophosphate) and 100 μM FAD (flavin adenine dinucleotide).
(§5) The Bead Beater cell disruptor was packed in ice and turned on for 10 seconds, followed by cooling for 3 minutes. This cycle was repeated five times. The extract was transferred into a centrifuge tube, and spun in a Beckman SA20 (Beckman, Fullerton, Calif.) rotor for 15 minutes at 17,000 rpms. […]

[7] = tested on: Anabaena AHAS; test: In vitro AHAS assay; type: biochemical, Anabaena PCC7120; details: 100 μM
Description: as §2, §3, §4, §5

[8] = tested on: Arabidopsis plants; test: Lethality to Arabidopsis plants in agar media; type: in vivo
Description: (§6) In vivo testing of Synechocystis PCC6803 and Anabaena PCC7120 was done by culturing the organisms in varying concentrations of the commercial herbicides. […] For relative comparison purposes a concentration of 1 μM PURSUIT® imazethapyr in agar media is lethal to Arabidopsis plants.

[9] = tested on: Synechocystis PCC6803; test: In vivo growth in BG-11 media with commercial herbicides; type: cell-based; details: 100 μM, one week of culture in BG-11 media
Description: (§7) In vivo resistance of cyanobacteria to PURSUIT® imazethapyr and OUST® sulfometuron methyl. As a preliminary matter, Synechocystis PCC6803 and Anabaenia PCC7120 were tested for susceptibility to PURSUIT® imazethapyr and OUST® sulfometuron methyl. AHAS genes which are resistant to these herbicides are excellent candidates for transformation in plant plastomes and nuclear genomes. Such transformants can be used in a weed control strategy using a combination of transgenic herbicide resistant crops and herbicides.
as §6

[10] = tested on: Anabaena PCC7120; test: as above; type: cell-based; details: 100 μM, one week of culture in BG-11 media
Description: as §7, §6

Question: CCc1cnc(C2=NC(C)(C(C)C)C(=O)N2)c(C(=O)O)c1 (stereo not shown) [PURSUIT® imazethapyr, imazethapyr] was tested. Which “growth on minimal media in the presence of the herbicide” value [1] did it give?
Answer: The value was “capable of growing”.

Question: What about the “increase in AHAS enzyme resistance compared with AHAS enzyme from unsprayed wild type tobacco” value [2] of the same compound?
Answer: Its value is ~20%.

Question: And the growth ([3]; 18 g/ha, 5 weeks after the test)?
Answer: The growth was “uninhibited”.

Question: And the leaf damage ([3]; 18 or 35 g/ha, 5 weeks after the test)?
Answer: Its leaf damage is “no visible leaf damage”.

Question: And the growth ([3]; 35 g/ha, 5 weeks after the test)?
Answer: The growth was “slight stunting”.

Question: What about the “effect on new shoots and morphology” value ([3]; p116 line, prolific shooting and morphological abnormalities in new shoots) of the same compound?
Answer: Its value is “strong growth regulator”.

Question: And the spray test observation [4]?
Answer: The spray test observation was “wide-spread leaf necrosis and stunting of growth”.

Question: What about the spray test observation [5] of the same compound?
Answer: Its spray test observation is “wide-spread leaf necrosis and stunting of growth”.

Question: And the “inhibition of AHAS enzyme” value [6]?
Answer: Its value is “No significant inhibition”.

Question: And the “inhibition of AHAS enzyme” value [7]?
Answer: Its value is “No significant inhibition”.

Question: And the “concentration lethal to Arabidopsis plants” value [8]?
Answer: The value was 1 µM.

Question: And the inhibition of growth [9]?
Answer: The inhibition of growth was “No inhibition of growth”.

Question: What about the inhibition of growth [10] of the same compound?
Answer: The inhibition of growth was “No inhibition of growth”.
